Legend:
[1] = [Ca2+] channel binding affinity was evaluated by its ability to displace [3H]-PN-200-110 in rat brain synaptosomes; type: subcellular
Rattus norvegicus = species on record: Rattus norvegicus; test: Inhibition constant by its ability to inhibit (act through Ca++ ion channel) contractions induced by K+ depolarization in rat dorsal aorta; type: functional
[2] = target: T1, Adrenergic receptor alpha-1 (Rattus norvegicus, UniProt P15823+P23944+P43140); test: Alpha-1 adrenergic receptor binding affinity was evaluated by its ability to displace [3H]prazosin in rat brain synaptosomes; type: subcellular
T1 sequence (P15823 whole entry): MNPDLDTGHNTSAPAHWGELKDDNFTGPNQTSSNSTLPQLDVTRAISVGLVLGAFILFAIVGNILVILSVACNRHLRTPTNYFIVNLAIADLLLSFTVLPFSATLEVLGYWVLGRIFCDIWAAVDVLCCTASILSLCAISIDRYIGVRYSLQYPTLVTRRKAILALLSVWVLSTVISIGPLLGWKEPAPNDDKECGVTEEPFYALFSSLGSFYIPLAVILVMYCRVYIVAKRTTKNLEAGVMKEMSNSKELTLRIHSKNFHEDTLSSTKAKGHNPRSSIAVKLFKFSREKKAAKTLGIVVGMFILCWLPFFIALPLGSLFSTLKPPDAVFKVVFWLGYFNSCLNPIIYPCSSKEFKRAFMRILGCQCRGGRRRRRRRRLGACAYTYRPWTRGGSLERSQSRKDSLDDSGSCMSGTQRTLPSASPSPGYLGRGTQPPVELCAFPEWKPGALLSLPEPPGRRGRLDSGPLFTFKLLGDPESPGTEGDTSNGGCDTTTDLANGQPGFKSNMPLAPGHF
T1 sequence (P23944 whole entry): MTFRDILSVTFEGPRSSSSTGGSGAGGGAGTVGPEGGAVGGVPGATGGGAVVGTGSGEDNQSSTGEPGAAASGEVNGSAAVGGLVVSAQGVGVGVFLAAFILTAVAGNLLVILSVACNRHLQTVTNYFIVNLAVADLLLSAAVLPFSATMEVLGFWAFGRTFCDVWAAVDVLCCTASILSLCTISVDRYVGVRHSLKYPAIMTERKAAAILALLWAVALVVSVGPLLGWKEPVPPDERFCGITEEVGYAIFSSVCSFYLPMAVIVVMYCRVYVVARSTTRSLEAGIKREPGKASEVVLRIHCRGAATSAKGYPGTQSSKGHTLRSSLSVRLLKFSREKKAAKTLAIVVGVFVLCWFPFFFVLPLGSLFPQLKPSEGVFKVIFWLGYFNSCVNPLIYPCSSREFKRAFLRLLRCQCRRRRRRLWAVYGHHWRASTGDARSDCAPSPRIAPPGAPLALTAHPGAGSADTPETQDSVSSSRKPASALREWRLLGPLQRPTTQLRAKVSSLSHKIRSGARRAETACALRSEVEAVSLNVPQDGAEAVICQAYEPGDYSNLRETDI
T1 sequence (P43140 whole entry): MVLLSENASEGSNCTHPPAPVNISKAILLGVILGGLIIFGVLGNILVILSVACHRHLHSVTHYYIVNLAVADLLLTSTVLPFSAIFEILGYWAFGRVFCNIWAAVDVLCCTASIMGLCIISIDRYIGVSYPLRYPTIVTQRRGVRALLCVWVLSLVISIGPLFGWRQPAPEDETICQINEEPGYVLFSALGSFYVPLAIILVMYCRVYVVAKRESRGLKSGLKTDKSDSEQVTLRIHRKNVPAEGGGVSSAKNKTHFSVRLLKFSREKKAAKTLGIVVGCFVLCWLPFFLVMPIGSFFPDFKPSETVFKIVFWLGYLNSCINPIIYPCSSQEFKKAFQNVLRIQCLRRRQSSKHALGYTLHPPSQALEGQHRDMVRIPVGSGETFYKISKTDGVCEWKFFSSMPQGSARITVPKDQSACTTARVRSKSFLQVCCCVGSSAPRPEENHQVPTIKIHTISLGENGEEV

Oryctolagus cuniculus = species on record: Oryctolagus cuniculus; test: Inhibition constant by its ability to inhibit contractions induced by phenylephrine in rabbit dorsal aorta; type: functional

Row | SMILES | Ki [1] [nM] | Ki [2] [nM] | Kb (Rattus norvegicus) [nM] | Kb (Oryctolagus cuniculus) [nM]
1 | CO/C(O)=C1\C(C)=NC(C)=C(C(=O)n2ccnc2)[C@H]1c1cccc([N+](=O)[O-])c1 | 7.8 | > 1000 | 3.6 | –
2 | COC(=O)C1=C(C)NC(C)=C(C(=O)OC)C1c1ccccc1[N+](=O)[O-] [NIFEDIPINE] | 0.53 | > 1000 | 0.5 | > 1000
3 | COc1cc2nc(N3CCN(C(=O)c4ccco4)CC3)nc(N)c2cc1OC [PRAZOSIN] | > 1000 | – | > 1000 | 1.6

Second part, led by results:

Row | Ki [1] [nM] | Ki [2] [nM] | SMILES | Kb (Rattus norvegicus) [nM] | Kb (Oryctolagus cuniculus) [nM]
4 | 181 | > 1000 | CO/C(O)=C1\C(C)=NC(C)=C(C(=O)n2ccnc2)[C@@H]1c1cccc([N+](=O)[O-])c1 | 31 | –
5 | 35 | 13 | CO/C(O)=C1\C(C)=NC(C)=C(C(=O)NCCCN2CCN(c3ccccc3OC)CC2)C1c1cccc([N+](=O)[O-])c1 (centres undefined) | 6.3 | –
6 | 338 | 36 | COC(=O)C1=C(C)NC(C)=C(C(=O)NCCCN2CCN(c3ccccc3OC)CC2)[C@@H]1c1cccc([N+](=O)[O-])c1 | 107 | 50
7 | 16 | 4.6 | COC(=O)C1=C(C)NC(C)=C(C(=O)NCCCN2CCN(c3ccccc3OC)CC2)[C@H]1c1cccc([N+](=O)[O-])c1 | 2.9 | 8.3

— ChEMBL document CHEMBL1127206, “Preparation and in vitro biological evaluation of the enantiomers of the diydropyridine BMY 20014, a combination calcium and 1-adrenoreceptor antagonist” (Bioorg Med Chem Lett, 1993)
